These results are taken from patent US10561658B2, “Thieno- and pyrrolopyrimidine analogues as anticancer agents and methods of use thereof” (UNIVERSITY OF MARYLAND, BALTIMORE COUNTY, priority 2015, dated 2020).

One may read the IC50 as the point on the concentration scale where inhibition reaches its midpoint. Broadly, the inhibition is the relative decrease from the control value, in per cent. Lower therefore signals a response near the control.

In test [1] the test system is murine leukemia L1210 cells. The test can be described thus: Cell proliferation assay, L1210. Type of test: cell-based. As to conditions: Mus musculus, 48 h proliferation, Coulter counter, read-out: IC50 L1210. On the procedure: (§1) Cell proliferation assays for several of the compounds were performed on L1210, a mouse lymphocytic leukemia cell line; CCRF-CEM [39] an acute lymphoblastic leukemia cell line; and HeLa, a human cancer cell line derived from a human cervical adenocarcinoma. Murine Leukemia L1210, human lymphocytic CEM and human cervix carcinoma HeLa cells were obtained from the American Type Culture Collection (ATCC) (Rockville, Md.). All assays were performed in 96-well microtiter plates. To each well were added (5-7.5)×10^4 tumor cells and a given amount of the test compound. The cells were allowed to proliferate for 48 h (murine leukemia L1210 cells) or 72 h (human lymphocytic CEM and human cervix carcinoma HeLa cells) at 37° C. in a humidified CO2-controlled atmosphere. At the end of the incubation period, the cells were counted in a Coulter counter. The IC50 (50% inhibitory concentration) was defined as the concentration of the compound that inhibited cell proliferation by 50%. […] Presence of C7 iodine on the 2,4-dichloro pyrrolo[3,2-d] (compound 20) increases the anticancer activity by a factor of 5 when compared to compound 19. […] This alludes to a) importance of C7-I towards activity against cancer cell lines for the 2,4-O-benzylated analogues (15 and 16).

Test [2] deals with human lymphocytic CEM cells. Nature of the test: Cell proliferation assay, CEM. As to conditions: CCRF-CEM, 72 h proliferation, Coulter counter. Type of test: cell-based. Here is the method: as §1
Test [3] has as its system human cervix carcinoma HeLa cells. Nature of the test: Cell proliferation assay, HeLa. In kind it is cell-based. The note with it: 72 h proliferation, Coulter counter. Here is the method:
as §1

Test [4] concerns L1210, CEM and HeLa cells. The test can be described thus: Cell proliferation assays, comparison across cancer cell lines. In kind it is cell-based. As to conditions: C7 iodine vs compound 19. Here is the method:
as §1

Test [5] has as its system MDA-MB-231 cells. The test can be described thus: Cell cycle distribution (propidium iodide, flow cytometry), MDA-MB-231. Type of test: cell-based, human. The note with it: 1.75 μM. On the procedure: Cell cycle distributions of MDA-MB-231 cells after 48 hours in the presence of equitoxic (IC80) doses of (a) compound 1 (15 μM) or (b) compound 2 (8 μM) analyzed by flow cytometry of fixed, propidium iodide-stained cells and compared to vehicle controls (DMSO). A minimum of 3000 cells were analyzed per cell population. Each bar represents the mean±SD across 4 independent cell samples.
(§2) Cell-cycle and apoptosis studies were conducted in MDA-MB-231 cells. Cell-cycle analysis of compound 19 at 15 μM concentration lead to arrest of 60% cells in G2/M stage. Similarly, at 1.75 μM concentration, compound 20 arrested 30% of cells in G2/M stage. […] To evaluate the possible mechanism for arrest of cell proliferation, cell-cycle distribution was measured using propidium iodide staining and flow cytometry. […] There are several possibilities that could account for this, including: (i) that cell lysis occurs rapidly following induction of apoptosis, preventing significant accumulation of annexin V-positive bodies, or (ii) that a distinct cell death pathway is triggered by compound 19.
Human metastatic breast cancer MDA-MB-231 cells were obtained from the American Type Culture Collection (ATCC) (Rockville, Md.) and maintained in Dulbecco's Modified Eagle's Medium (DMEM) containing 10% fetal bovine serum (FBS) without antibiotics at 37° C. in a humidified, CO2-controlled incubator. The cytotoxicity of compounds 1 and 2 was assessed by reduction of 3-(4, 5-dimethylthiazol-2-yl)-2,5-diphenyltetrazolium bromide (MTT). MDA-MB-231 cells were seeded in 96-well plates at 5×10^3 cells per well and treated with a range of drug concentrations. After 48 hours, cell viability was measured using the MTT Cell Proliferation Assay kit (ATCC) according to the manufacturer's instructions. Percent cell viability was plotted as a function of drug concentrations and analyzed using a sigmoidal dose response function with PRISM v3.03 software (GraphPad) to resolve drug concentrations yielding 50% cell death (IC50). The cell cycle distributions of MDA-MB-231 cells treated with compounds 1 or 2 were analyzed using propidium iodide staining and flow cytometry. 2×10^6 cells were seeded in 100 mm dishes and treated with compounds 1 or 2 at the IC80 values determined by cell viability assays or an equivalent volume of DMSO. 48 h following treatment the cells were collected, fixed, and stained with propidium iodide (Sigma Aldrich) immediately before analysis by flow cytometry.
As shown in Example 11, compounds 1 and 2 both induced apoptosis but involving a mechanism independent of cell cycle arrest. To test whether the toxicity of these agents for MDA-MB-231 cells proceeded via a similar pathway, their effects were monitored on cell cycle distributions using propidium iodide staining and flow cytometry. […]
On the technique in general: In flow cytometry, cells or beads pass a laser one at a time.

The subject of test [6] is MDA-MB-231 cells. The test can be described thus: Apoptosis (annexin V), MDA-MB-231. As to conditions: MDA-MB-231, tested concentration. In kind it is cell-based, human. On the procedure: as §2
Test [7] has as its system Escherichia coli ATCC 25922. The test can be described thus: Antimicrobial growth inhibition, E. coli. As to conditions: ATCC25922; Escherichia coli ATCC 25922, 100 μM. Type of test: cell-based. Here is the method: (§3) Evaluation of antimicrobial activity in vitro. Compounds were tested against the following panel of bacteria and fungi purchased from the American Type Culture Collection (ATCC). Briefly, bacteria were grown to mid-log phase, diluted with fresh medium to an optical density at 600 nm (OD600) of 0.030-0.060 and then diluted again 1:10. This suspension (195 μL) was added to wells in a 96 well microtiter plate (Sarstedt) and 5 μL of compound dissolved in DMSO was added to give a final concentration of 100-0.1 μM at 2.5% DMSO by volume. A DMSO negative control and standard antibiotic positive controls were included in each plate. All compounds were tested in triplicate for each concentration. Plates were sealed with parafilm, placed in a Ziploc bag to prevent evaporation, and incubated at 30° C. (fungi) or 37° C. (bacteria) for 16-20 hours (48 hours for C. neoformans). The OD600 values for each well were determined with a plate reader (Biotek, EL800) and the data were standardized to the DMSO control wells after subtracting the background from blank medium. Initial single concentrations were tested at 100 μM and active compounds were further tested with at least nine concentrations for a full dose response. Dose response curves were generated using GraphPad Prism 5 software and used to determine the MIC95 concentrations (minimal concentration that inhibits 95% of growth). Compounds 1, 2, 5 and 19 were screened for growth inhibition activity against a panel of bacteria and fungi at a concentration of 100 as shown in Table 2. Compound 5 was included to test the importance of the C4-Cl substituent for activity across a broader range of biological systems.

Test [8] has as its system Bacillus subtilis ATCC 6633. The test can be described thus: Antimicrobial growth inhibition, B. subtilis. In kind it is cell-based. As to conditions: ATCC6633; Bacillus subtilis ATCC 6633, 100 μM. On the procedure:
as §3

The test system of test [9] is Staphylococcus aureus subsp. aureus (MRSA) ATCC 43300. Nature of the test: Antimicrobial growth inhibition, S. aureus (MRSA). Type of test: cell-based. The note with it: Staphylococcus aureus (MRSA) ATCC 43300, 100 μM. On the procedure: as §3
In test [10] the test system is Candida albicans ATCC 10231. The test can be described thus: Antifungal growth inhibition and MIC95, C. albicans. In kind it is cell-based. As to conditions: ATCC10231; Candida albicans ATCC 10231, 100 μM. Here is the method:
as §3
(§4) Compounds 1 and 2 were further tested against the susceptible fungal strains to determine the MIC95 values.

The next test relates to Cryptococcus neoformans. The test can be described thus: Antifungal growth inhibition and MIC95, C. neoformans strains. Type of test: cell-based. Here is the method:
as §3, §4

Turning to `Clc1nc(Cl)c2[nH]cc(I)c2n1` [Compound 20, 7-iodo-2,4-dichloro pyrrolo[3,2-d]pyrimidine], the IC50 in [1] was 0.93 µM; in test [2] it was 4.9 µM; in test [3] it was 0.92 µM. Moreover, the “increase of anticancer activity by a factor, compared to compound 19” value in [4] amounted to 5. Moreover, in the test with MDA-MB-231 cells [5], the “cells arrested in G2/M stage” value was determined as 30%. In the test with MDA-MB-231 cells [6], the “annexin V-positive cells” value is “robust accumulation”.
For `Ic1c[nH]c2c(OCc3ccccc3)nc(OCc3ccccc3)nc12` [Compound 16, 7-iodo-2,4-bis-benzyloxy-5H-pyrrolo[3,2-d]pyrimidine], the 50% inhibitory concentration (IC50) in test [1] is 21 ± 2 µM; in test [2], 17 µM; in test [3], 17 µM.
Turning to `c1ccc(COc2nc(OCc3ccccc3)c3[nH]ccc3n2)cc1` [Compound 15, 2,4-Bis-benzyloxy-5H-pyrrolo[3,2-d]pyrimidine], the IC50 was 118 ± 8 µM in [1], 86 µM in [2] and 98 µM in [3].
As for `Clc1ncc2sccc2n1` [Compound 5], the inhibition at 100 µM in [7] was less than 43%; in [8], less than 43%; in test [9] it was less than 43%; in [10], less than 43%; in the test with Cryptococcus neoformans (ATCC66031, Cryptococcus neoformans ATCC 66031, 100 μM), less than 43%; in the test on Cryptococcus neoformans (C. neoformans B4546, 100 μM), less than 43%. Moreover, the inhibition at 100 µM was less than 43% in the test with Cryptococcus neoformans (C. neoformans JEC20, 100 μM) and less than 43% in the test on Cryptococcus neoformans (C. neoformans VANC-R265, 100 μM).
